Experimental data as given in publication PMC6382696, “Drug Repurposing: The Anthelmintics Niclosamide and Nitazoxanide Are Potent TMEM16A Antagonists That Fully Bronchodilate Airways” (Frontiers in Pharmacology, 2019).

Assays:
[1] = biological target: T1, TMEM16A (acd) (Homo sapiens, UniProt Q5XXA6); test: QPatch whole-cell electrophysiology, HEK293 TMEM16A (acd); assay type: cell-based; conditions: supplement; 170 nM free intracellular calcium; read-out: IC50 for blocking the TMEM16A outward current, QPatch
T1 sequence (Q5XXA6 1-986): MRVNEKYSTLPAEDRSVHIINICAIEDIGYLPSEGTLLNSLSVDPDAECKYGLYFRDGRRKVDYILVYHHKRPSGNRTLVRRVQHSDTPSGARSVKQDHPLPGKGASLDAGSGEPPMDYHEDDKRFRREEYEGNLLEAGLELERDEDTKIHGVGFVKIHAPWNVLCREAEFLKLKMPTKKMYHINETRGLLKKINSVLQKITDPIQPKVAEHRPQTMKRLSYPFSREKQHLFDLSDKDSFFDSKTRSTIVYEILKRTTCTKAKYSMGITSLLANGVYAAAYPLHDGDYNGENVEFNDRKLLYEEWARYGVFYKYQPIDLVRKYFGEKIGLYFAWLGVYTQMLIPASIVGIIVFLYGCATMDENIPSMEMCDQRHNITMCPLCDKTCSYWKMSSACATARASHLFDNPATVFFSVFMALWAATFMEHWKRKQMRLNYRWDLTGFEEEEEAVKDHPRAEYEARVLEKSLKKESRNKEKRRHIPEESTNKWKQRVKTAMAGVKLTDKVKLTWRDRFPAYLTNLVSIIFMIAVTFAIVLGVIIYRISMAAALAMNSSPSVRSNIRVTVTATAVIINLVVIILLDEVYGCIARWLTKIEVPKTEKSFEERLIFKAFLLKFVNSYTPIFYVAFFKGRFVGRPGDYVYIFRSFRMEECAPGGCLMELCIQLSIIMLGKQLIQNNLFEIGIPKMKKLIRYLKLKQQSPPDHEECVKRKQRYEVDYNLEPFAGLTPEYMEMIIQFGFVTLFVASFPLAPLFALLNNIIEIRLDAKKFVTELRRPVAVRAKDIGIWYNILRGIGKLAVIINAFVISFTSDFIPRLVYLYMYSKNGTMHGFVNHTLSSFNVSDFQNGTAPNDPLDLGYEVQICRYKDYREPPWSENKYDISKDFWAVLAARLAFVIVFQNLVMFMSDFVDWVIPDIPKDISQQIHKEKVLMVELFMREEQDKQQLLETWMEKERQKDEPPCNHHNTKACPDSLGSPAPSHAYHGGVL
Source text: HEK293 cells stably expressing the TMEM16A (acd) variant were purchased from SB Drug Discovery. The HEK293 TMEM16A (abc) stable cell line was from ChanTest and COLO-205 cells were purchased from ATCC. The same standard buffers and recording conditions listed below were used for QPatch studies on all three cell lines.
Recording Solutions: were made weekly as below and stored at room temperature until used. It is recommended not to add ATP to internal solution until immediately before using on the QPatch. The external buffer (in mM) was 140 NaCl, 4 KCl, 2 CaCl2, 1 MgCl2, 10 HEPES, 10 Glucose, pH7.4, while the internal buffer (in mM) was 110 CsCl, 20 TEA-Cl, 5.374 CaCl2, 1.75 MgCl2, 10 EGTA, 10 HEPES, 4 Na2ATP, pH 7.2.
Once established in whole-cell configuration, cells were clamped to a holding potential (Vhold) of 0 mV on 48 well single hole patch plate. A standardized IV protocol was used to elicit ionic current through the TMEM16A chloride channel at 20 s intervals. Steady-state voltage pulses were from −100 mV to +100 mV in +20 mV steps for a duration of 500 ms. After each pulse the voltage was returned to −100 mV for 50 ms to obtain tail currents, and then returned to the holding potential of 0 mV until the beginning of the next sweep. […] This ensures a minimum of 60 s per concentration incubation before measuring current block. Currents were acquired at 10 kHz and filtered at 2 kHz, leak subtraction and Rseries were disabled. A 1 MΩ minimum resistance was set because cells are held in an open channel state and therefore resistance is low.
A cumulative concentration response was measured where each cell is exposed to five concentrations of test article with a dilution factor of 1:5 (e.g., 0.048, 0.24, 1.2, 6, and 30 μM). Cells were recorded for ∼60 s per solution/compound addition. Initially, external solution is applied twice to allow currents to stabilize. Then vehicle (from the saline reservoir) is added twice to monitor any effect 0.3% DMSO might have on currents. This leads directly into the concentration runs by applying Concentration 1 (single addition) for 1 min. Concentration 2 is then applied for the subsequent minute, etc. Recovery/washout was monitored for a final minute with a final external solution addition.
[…] […] Each cell’s current magnitude was then normalized to itself at the initial 0.3% vehicle control period prior to compound application. This step is to account for differences in current size for each cell. Normalized responses to test article were plotted against their concentrations to reveal a concentration-inhibition plot.
A Normalized Group Hill fit was then performed on the plotted results to yield a pooled IC50 value, reconstructed from a minimum of two cells/concentration. The baseline response as well as the full response were constrained to 1 and 0, respectively.

[2] = test system: Wnt/β-catenin transcription; test: Wnt/β-catenin transcription TOPFlash reporter assay; assay type: cell-based; conditions: Wnt TopFlash IC50 over TMEM16A eYFP IC50
[3] = test system: Wnt/β-catenin transcription; conditions: ref Mook et al. (2015); read-out: Mook et al. Wnt/β-catenin TopFlash (IC50); cited from earlier work
[4] = biological target: T2, hTMEM16A (abc) (Homo sapiens, UniProt Q5XXA6, DEL476-501); test: medchem TMEM16A halide-sensitive YFP assay, 22-point dose-response; assay type: cell-based; parameters: expressed in transfected cells; conditions: supplement; iodide as permeant anion, maximum concentration 55.6; read-out: TMEM16A eYFP Assay IC50
T2 sequence (Q5XXA6 with tags, fused parts or gaps isoform Q5XXA6-5 DEL539-564): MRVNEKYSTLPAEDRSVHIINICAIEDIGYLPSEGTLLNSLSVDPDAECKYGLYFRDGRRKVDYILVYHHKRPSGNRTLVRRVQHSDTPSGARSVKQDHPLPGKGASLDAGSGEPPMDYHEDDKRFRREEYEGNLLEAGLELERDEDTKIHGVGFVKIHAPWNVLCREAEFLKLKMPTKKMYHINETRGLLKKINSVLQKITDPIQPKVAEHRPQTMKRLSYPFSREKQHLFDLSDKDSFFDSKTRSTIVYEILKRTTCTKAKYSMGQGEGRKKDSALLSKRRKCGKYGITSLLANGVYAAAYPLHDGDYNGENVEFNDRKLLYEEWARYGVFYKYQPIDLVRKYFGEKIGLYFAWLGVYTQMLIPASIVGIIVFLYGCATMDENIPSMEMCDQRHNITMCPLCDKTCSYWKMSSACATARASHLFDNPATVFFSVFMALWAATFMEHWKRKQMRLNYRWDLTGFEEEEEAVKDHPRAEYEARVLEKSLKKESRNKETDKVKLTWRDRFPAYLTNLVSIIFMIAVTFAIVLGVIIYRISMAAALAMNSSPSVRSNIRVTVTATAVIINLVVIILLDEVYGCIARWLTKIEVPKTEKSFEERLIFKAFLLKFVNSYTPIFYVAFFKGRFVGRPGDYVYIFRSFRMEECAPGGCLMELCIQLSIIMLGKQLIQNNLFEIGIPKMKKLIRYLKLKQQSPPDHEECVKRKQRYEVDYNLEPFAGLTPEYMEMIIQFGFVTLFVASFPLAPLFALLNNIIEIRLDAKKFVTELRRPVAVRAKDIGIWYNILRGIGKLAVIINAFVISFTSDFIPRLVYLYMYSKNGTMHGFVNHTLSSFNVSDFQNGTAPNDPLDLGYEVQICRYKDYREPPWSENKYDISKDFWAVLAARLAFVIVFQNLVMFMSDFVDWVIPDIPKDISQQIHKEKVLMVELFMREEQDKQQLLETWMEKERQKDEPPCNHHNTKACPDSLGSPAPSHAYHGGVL
Experimental: The TMEM16A HEK293T eYFP (H149Q, I153L) stable cell line for medchem support was generated by transfecting 10 μg of linearized hTMEM16A(abc) DNA constructs into HEK293T eYFP (H149Q,I153L) stable cells. The transfected cells were cultured under 200 μg/ml of hygromycin B selection for 20 days and the stable pool was single cell seeded in 96 well plate and duplicated plate were made after single cell clones were formed. YFP function assay were performed on duplicated plate and clones producing higher changes in fluorescence from the YFP assay were chosen for further expansion to form a stable cell line.
Plates were incubated for 24 h at 37°C with 5% CO2. On the assay day, medium was removed and replaced with 20 μl/well of assay buffer (Hank’s Balanced Salt Solution with 10 mM HEPES pH 7.4), 10 μl/well of 40x diluted compounds was added to assay plate and it was incubated at room temperature for 30 min, after which baseline fluorescence was read in the FLIPR instrument for 10 s. Then, 5 μl/well of a 3x trigger solution (24 mM iodide, 3 μM ionomycin in assay buffer) was added and the fluorescence kinetic trace was recorded for 2 min.

[5] = test system: human bronchial rings; test: Wire myograph bronchodilation of histamine pre-contracted human bronchial rings (Biopta)
Source text: Details of bronchodilator studies shown in Figure 5H, 6 and Supplementary Figure 40 are provided below as part of the end assay report on Study CUR011 by Lee Christie (Biopta). Donors with any of the following conditions were excluded from the study: asthma, COPD, emphysema, lung cancer, cystic fibrosis, pulmonary fibrosis, pulmonary hypertension, pneumonia. Donors were also excluded if they had smoked in the past 12 months. Non-transplantable lung tissue was acquired from organ donors post mortem. Any macroscopically diseased/necrotic tissue was rejected. […] Human airway rings were set up under isometric conditions on a wire myograph in order to examine the influence of the test articles on bronchodilation. In order to assess tissue viability, the airways were challenged with carbachol (10 μM) and then isoprenaline (10 μM) to assess their constriction and relaxation responses, respectively. […] Viable airways were pre-constricted with histamine (10 μM), then exposed to one of the following cumulative concentration response curves (CCRCs): positive control, vehicle (water, volume matched to positive control), test article, vehicle (DMSO concentration matched to test articles). At the end of each CCRC, theophylline (2.2 mM) was added to induce maximal relaxation of the tissue. […] Airways were re-tensioned to 1.0 – 1.5 g if the tension had dropped below 1.0 g during the first 30 min of equilibration. (b) Airways were exposed to carbachol (bath concentration 10 μM) in order to measure their contractile responses and then isoprenaline (10 μM) in order to assess their relaxation. Airways were washed out and allowed to return to baseline. (c) Airways were pre-constricted with histamine (10 μM) before conducting a CCRC to the test article, the positive control (isoprenaline), test article vehicle or positive control vehicle.

[6] = biological target: T3, human CFTR (Homo sapiens, UniProt P13569); test: IonWorks Barracuda electrophysiology, CFTR chloride current in CHO cells; assay type: cell-based; conditions: 10 µM compound, CHO CFTR
T3 construct: host or cells: CHO
T3 sequence (P13569 whole entry): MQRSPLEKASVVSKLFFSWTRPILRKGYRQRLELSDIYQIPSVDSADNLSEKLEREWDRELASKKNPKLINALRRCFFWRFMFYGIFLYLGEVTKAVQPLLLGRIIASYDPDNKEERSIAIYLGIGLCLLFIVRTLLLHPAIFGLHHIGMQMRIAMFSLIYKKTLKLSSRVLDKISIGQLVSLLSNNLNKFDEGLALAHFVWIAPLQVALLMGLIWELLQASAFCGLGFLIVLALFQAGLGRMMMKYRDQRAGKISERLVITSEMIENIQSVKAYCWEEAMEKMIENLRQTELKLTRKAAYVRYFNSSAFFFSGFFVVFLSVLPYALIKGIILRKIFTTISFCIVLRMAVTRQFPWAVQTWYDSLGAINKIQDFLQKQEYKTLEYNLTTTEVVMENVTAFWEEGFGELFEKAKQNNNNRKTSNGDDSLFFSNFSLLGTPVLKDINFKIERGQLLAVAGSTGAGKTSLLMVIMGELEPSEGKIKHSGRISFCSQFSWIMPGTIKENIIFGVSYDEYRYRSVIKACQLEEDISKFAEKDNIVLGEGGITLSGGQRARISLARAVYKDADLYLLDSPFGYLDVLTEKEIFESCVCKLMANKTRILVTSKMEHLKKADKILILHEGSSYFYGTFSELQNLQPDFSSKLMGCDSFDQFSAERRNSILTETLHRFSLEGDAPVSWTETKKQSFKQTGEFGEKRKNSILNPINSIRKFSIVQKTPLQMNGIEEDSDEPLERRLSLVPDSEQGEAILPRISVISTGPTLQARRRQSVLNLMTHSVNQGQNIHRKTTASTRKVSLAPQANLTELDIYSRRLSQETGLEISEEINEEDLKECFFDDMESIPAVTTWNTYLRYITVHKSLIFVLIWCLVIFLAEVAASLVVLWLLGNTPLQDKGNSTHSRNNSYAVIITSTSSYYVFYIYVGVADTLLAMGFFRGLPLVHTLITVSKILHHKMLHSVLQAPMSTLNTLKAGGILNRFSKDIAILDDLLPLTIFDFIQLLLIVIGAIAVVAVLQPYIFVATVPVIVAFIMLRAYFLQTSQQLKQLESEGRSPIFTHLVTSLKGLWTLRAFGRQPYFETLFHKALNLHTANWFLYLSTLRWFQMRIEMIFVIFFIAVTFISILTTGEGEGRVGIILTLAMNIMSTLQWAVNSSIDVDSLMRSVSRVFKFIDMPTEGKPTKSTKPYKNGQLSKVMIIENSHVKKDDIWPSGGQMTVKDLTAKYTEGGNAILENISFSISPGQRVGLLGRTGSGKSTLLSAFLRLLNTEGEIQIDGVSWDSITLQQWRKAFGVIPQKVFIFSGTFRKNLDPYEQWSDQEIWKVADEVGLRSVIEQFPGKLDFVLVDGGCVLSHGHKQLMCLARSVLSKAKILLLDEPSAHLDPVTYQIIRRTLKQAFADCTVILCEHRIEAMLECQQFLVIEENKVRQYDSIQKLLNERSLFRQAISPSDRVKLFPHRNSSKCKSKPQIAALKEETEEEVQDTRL
Source text: HEK293 cells stably expressing the human TMEM16A (abc) variant and CHO cells expressing the human CFTR gene were from ChanTest. The IonWorks Barracuda (IWB) procedure and data provided are from outsourced studies performed at ChanTest (Charles River Discovery, Cleveland, OH, United States) who were blinded as to the identity of the test articles or compounds provided by Amgen.
For measuring compound effects on CFTR chloride currents, compounds were serially diluted in HEPES-buffered physiological saline to 2X final concentration allowing for an 8-point dose-response analysis. Test article concentrations were applied to naïve cells (n = 4, where n = the number of replicate wells/concentration) via steel needles, where each application will consist of addition of 20 μl of 2X concentrated test article solution to a final 40 μl volume in the extracellular well of the Population Patch ClampTM (PPC) planar electrode. After mixing (three times), duration of exposure to compound is at least 5 min. Final solutions contain 0.3% DMSO. […] The current is measured using a pulse pattern consisting of a voltage step to +60 mV, 100 ms duration; voltage ramp from +60 to −120 mV, 1000 ms; step to −120 mV, 200 ms; and step to 0 mV, 200 ms; from holding potential, −30 mV. Current amplitudes were measured at the voltage step to 0 mV. The recording procedure was as follows: extracellular buffer is loaded into the PPC plate wells (11 μl per well). Cell suspension was pipetted into the wells (9 μl per well) of the PPC planar electrode. After establishment of a whole-cell configuration via amphotericin patch perforation similar to that described earlier, membrane currents were recorded using the patch clamp amplifier in the IonWorks^TM Barracuda system. Two recordings (scans) were then performed, one scan before and a second scan 5 min after test article (TA) application. […] Data acquisition and analyses were performed using the IonWorks Barracuda^TM system operation software (version 2.0.2). The decrease in current amplitude after test article application was used to calculate the percent block relative to control. […] Inhibition effect was calculated as: % Inhibition = (1 – ITA/IBaseline) × 100%, where IBaseline and ITA were the currents measured in control (before addition of a test article) and in the presence of a test article, respectively.

Row | Compound | IC50 [3] [µM] | IC50 [4] [µM] | also measured
1 | O=C(Nc1ccccc1C(=O)Nc1nnc(C(F)(F)F)s1)c1ccccc1Cl [CID# 2806957] | – | – | IC50 [1]: 0.67 µM
2 | O=C(Nc1ccccc1)c1cc(Cl)ccc1O [Cpd 6] | 11.8 | 1.04 | IC50 Ratio, Wnt/TMEM16A [2]: 11.36
3 | CC(=O)c1ccc(NC(=O)c2cc(Cl)ccc2O)cc1 [Cpd 7] | 6.42 | 2.62 | IC50 Ratio, Wnt/TMEM16A [2]: 2.45
4 | CS(=O)(=O)c1ccc(NC(=O)c2cc(Cl)ccc2O)c(Cl)c1 [Cpd 8] | 7.66 | 4.72 | IC50 Ratio, Wnt/TMEM16A [2]: 1.62
5 | O=C(Nc1c(Cl)cccc1Cl)c1cc(Cl)ccc1O [Cpd 15] | > 12 | – | –
6 | O=C(Nc1c(F)cccc1F)c1cc(Cl)ccc1O [Cpd 18] | > 12 | 13.4 | –
7 | CC(C)(C)NCC(O)c1ccc(O)c(CO)c1 (centres unmarked) [Salbutamol, salbutamol] | – | – | EC50 ([5]; Homo sapiens, 10 μM histamine, read-out: EC50 bronchodilating histamine precontracted human airways): 0.119 µM; time to open airways ([5]; summary): < 7 min
8 | NCCNCCNC(=O)c1cc2ccccc2cc1O [compound 111758] | – | 0.091 ± 0.028 | –
9 | CC1(C)C(O)C1C#Cc1ccccc1 (centres unmarked) [compound 598689] | – | 0.466 ± 0.101 | –
10 | CCCn1c(SCC(=O)NCC(F)(F)F)nc2ccccc2c1=O [compound 2100101] | – | 3.33 | –
11 | Cc1ccc(-c2nnn(CC(=O)N(c3cccc(C(F)(F)F)c3)C(C(=O)NC(C)(C)C)c3cccs3)n2)cc1 (centres unmarked) [compound 3179204] | – | 0.334 | –
12 | CFTRinh-172 | – | – | effect on CFTR chloride current [6]: fully inhibited
